Data taken from paper PMC7961380, “A Systematic Study of the In Vitro Pharmacokinetics and Estimated Human In Vivo Clearance of Indole and Indazole-3-Carboxamide Synthetic Cannabinoid Receptor Agonists Detected on the Illicit Drug Market” (Molecules, 2021).

Tests used:
[1] = Chromatographic hydrophobicity index (CHI) log D at pH 7.4; details: for chromatographic logD: reversed-phase HPLC, Acquity BEH C18 column
Description: Chromatographic hydrophobicity index (CHI) log D samples (see below) were analysed using high-performance liquid chromatography (HPLC) with a Shimadzu Nexera X2 HPLC coupled to a Shimadzu SPD-30 MA photodiode array detector (PDA) (Shimadzu, Kyoto, Japan). […] The sample chamber was maintained at 25 °C. Gradient elution was performed, with mobile phase (MP) consisting of ammonium acetate in water (10 mM, pH 7.4) (MP A) and acetonitrile (MP B).
A calibration mix of ten compounds at 10 µg mL^−1 in 1:1 (v/v) water:ACN was used (theophylline, phenyltetrazole, benzimidazole, colchicine, phenyltheophilline, acetophenone, indole, propiophenone, butyrophenone and valerophenone (all Sigma-Aldrich)). Test compounds were prepared at 0.25 mM in 1:1 (v/v) water:ACN. Samples (n = 2 for calibration standards; n = 1 for test compounds) were analysed using UPLC-PDA as described above. Retention times of calibration compounds are used to calculate retention factor (k), which is plotted against literature CHI values for each compound.
Where tr is the retention time of the analyte and t0 is the retention time of an unretained compound
Calculation of chromatographic hydrophobicity index (CHI)
CHI = (𝑘 x slope) − intercept Eqn.4
Where k is the retention factor of the analyte.
Calculation of CHI Log D [1]
Where CHI is the chromatographic hydrophobicity index obtained using Equation 4

in vitro = details: human, plasma, pH 7.4
Description: The pooled plasma used for both plasma stability and plasma binding studies originated from 50 donors, collected as whole blood from donors in the United States at an FDA-approved collection center, processed into plasma by centrifugation and immediately frozen (Innovative Research; Novi, MI, USA) and purchased from Patricell (Nottingham, UK). […] Stock solutions were prepared in DMSO. […] For incubations without inhibitor an equivalent volume of DMSO was included. Plasma mixture was pre-incubated at 37 °C for 5 min. Test compounds (5 µM) and procaine (positive control, 50 µM) were added to pre-warmed plasma mixture containing inhibitors. Incubation volume was 1 mL. Samples were mixed and 80 µL was immediately sampled and quenched into 200 µL ACN spiked with donepezil (internal standard (IS), 50 ng mL^−1). […] Peak area ratio of analyte to IS was used to determine half-lives of test compounds in plasma, both with and without the presence of esterase inhibitors.
The human plasma used was pooled from 50 donors, and was collected as whole blood from donors in
the United States at an FDA-approved collection center, processed into plasma by centrifugation and
The stability of the tested SCRAs, select metabolites and procaine control in pooled human plasma over
inhibitors bis(4-nitrophenyl) phosphate (BNPP) and phenyl methyl sulphonyl fluoride (PMSF) is

[2] = Theoretical fraction unbound for hepatocytes (fuhep) from log D7.4; design: species or system human; details: calculated from experimental log D7.4 as Kilford et al. (2008), cell volume 3.9 µL/million cells
Excerpt: For all MDMB- compounds, and for most (S)-AMB-compounds differences in CLint were within 2.5-fold. […] There are multiple factors which can cause intrinsic clearance by HHeps to differ from HLM [89]. Differences may reflect the relative efficiency of transport of SCRAs and their enantiomers through cell membranes in HHeps and the relative abundance of particular enzymes in HLM and HHeps, targeting different sites of metabolism, particularly carboxylesterases. A dominance of non-CYP enzymes in metabolic clearance can result in CLint being faster in HHeps. […] Glucuronidation is therefore unlikely to cause the differences in clearance rates observed. […] CES-1 is one of the most abundant enzymes in human hepatocytes, present in the endoplasmic reticulum and to a lesser extent in the cytosol. Non-specific binding of drugs to microsomes and hepatocytes results in a lower unbound fraction available to interact with enzymes; differences in binding between HLM and HHep incubations may therefore also cause clearance differences. Non-specific binding may be estimated from log P data. Theoretical fraction unbound for microsomes (fumic) and hepatocytes (fuhep) was calculated using experimental pHLM and pHHep concentrations and incubation volumes, and experimental log D7.4 values, as described by Kilford et al. (2008) with hepatocyte cell volume as 3.9 µL/million cells. […]

[3] = design: method as in PMID 17712819; details: cited from earlier work
[4] = cited from earlier work
[5] = system: human hepatocytes (HHeps); details: HHeps (asterisk); ref 13 (JWH-122, MAM-2201, Cl-, Br-, I-JWH-122), 105 (AM1220); cited from earlier work
[6] = HLM, ref 14 (THJ-018, THJ-2201), 15 (NNEI, MN-18), 106 (NM-2201), 107 (BIM-2201), 108 (STS-135), 16 (AB-PINACA, 5F-AB-PINACA), 54 (5F-MDMB-PINACA), 69 (AB-FUBINACA), 17 (ADB-FUBINACA), 97 (FDU-PB-22, FUB-PB-22), cited from earlier work; for CLint micr / t1/2: 95 (Cumyl-PICA, 5F-Cumyl-PICA), 109 (5F-APP-PICA, 5F-APP-PINACA; for CLint micr: 73 (5F-AMB-PINACA); for t1/2 / CLint: 57 (AMB-4en-PICA); for t1/2: 73 (AMB-PINACA, 5F-AMB-PINACA)
[7] = Metabolic stability, pooled human liver microsome incubations; details: pHLM; vs refs 69 (AB-FUBINACA), 54 (5F-MDMB-PINACA)

## C=CCCCn1cc(C(=O)NC(C(=O)OC)C(C)(C)C)c2ccccc21 (stereo not drawn) [MDMB-4en-PICA (12), methyl 3,3-dimethyl-2-[1-(pent-4-en-1-yl)-1H-indole-3-carboxamido]butanoate]
[1]
  chromatographic logD: 4.4

## CCN(CC)CCOC(=O)c1ccc(N)cc1 [Procaine]
In vitro
  half-life: 6.5 min
  remaining at 3 h: 0.03 ± 0.02%
  remaining at 5 h: 0.08%

## C=CCCCn1nc(C(=O)NC(C(=O)OC)C(C)(C)C)c2ccccc21 (stereo not drawn) [MDMB-4en-PINACA (5), methyl 3,3-dimethyl-2-[1-(pent-4-en-1-yl)-1H-indazole-3-carboxamido] butanoate]
[1]
  chromatographic logD: 4.95
[2]
  estimated fuhep (theoretical fraction unbound for hepatocytes): 0.47

## COC(=O)C(NC(=O)c1nn(CCCCF)c2ccccc12)C(C)(C)C (stereo not drawn) [4F-MDMB-BINACA (4), methyl 2-[1-(4-fluorobutyl)-1H-indazole-3-carboxamido]-3,3-dimethylbutanoate]
[1]
  chromatographic logD: 4.18

## CCCCCc1cc(O)c2c(c1)OC(C)(C)[C@@H]1CCC(C)=C[C@@H]21 [THC, Δ9-tetrahydrocannabinol]
[3]
  protein-bound in plasma: 95–99%
[4]
  log P: 6.7

## Cc1ccc(C(=O)c2cn(CCCCCI)c3ccccc23)c2ccccc12 [I-JWH-122, (1-(5-iodopentyl)-1H-indol-3-yl)(4-methylnaphthalen-1-yl)methanone]
[5]
  CLint: 235 mL/min/kg
  t1/2: 5.26 min

## COC(=O)[C@@H](NC(=O)c1nn(CCCCCF)c2ccccc12)C(C)C [5F-AMB-PINACA (10), methyl [1-(5-fluoropentyl)-1H-indazole-3-carbonyl]valinate]
[6]
  CLint micr: 670 µL/min/mg
  t1/2: 1.0 min
[1]
  chromatographic logD: 4.07

## CC(C)C(NC(=O)c1nn(Cc2ccc(F)cc2)c2ccccc12)C(N)=O (stereo not drawn) [AB-FUBINACA (8), N-(1-amino-3-methyl-1-oxobutan-2-yl)-1-(4-fluorobenzyl)-1H-indazole-3-carboxamide]
[6]
  CLint micr: 11 µL/min/mg
  t1/2: 62.6 min
  CLint: 10.5 mL/min/kg
[7]
  CLH prediction lower than literature prediction without PPB: 20 fold
  EH prediction lower than literature prediction without PPB: 17 fold
[1]
  chromatographic logD: 2.81

## CC(C)C(NC(=O)c1nn(CC2CCCCC2)c2ccccc12)C(N)=O (stereo not drawn) [AB-[…] (11), N-[1-amino-3-methyl-1-oxobutan-2-yl]-1-(cyclohexylmethyl)-1H-indazole-3-carboxamide]
[1]
  chromatographic logD: 3.71

## COC(=O)C(NC(=O)c1cn(CCCCCF)c2ccccc12)C(C)(C)C (stereo not drawn) [5F-MDMB-PICA (3), methyl 2-[1-(5-fluoropentyl)-1H-indole-3-carboxamido]-3,3-dimethylbutanoate]
[1]
  chromatographic logD: 4.06

## COC(=O)[C@@H](NC(=O)c1nn(Cc2ccc(F)cc2)c2ccccc12)C(C)C [AMB-FUBINACA (1), methyl [1-(4-fluorobenzyl)-1H-indazole-3-carbonyl]valinate]
[1]
  chromatographic logD: 4.28

## Cc1ccc(C(=O)c2cn(CCCCCF)c3ccccc23)c2ccccc12 [MAM-2201]
[5]
  CLint: 1408 mL/min/kg
  t1/2: 0.88 min

## Cc1ccc(C(=O)c2cn(CCCCCCl)c3ccccc23)c2ccccc12 [Cl-JWH-122]
[5]
  CLint: 502 mL/min/kg
  t1/2: 2.46 min

## C=CCCCn1cc(C(=O)NC(C(=O)OC)C(C)C)c2ccccc21 (stereo not drawn) [AMB-4en-PICA (7), methyl 3-methyl-2-[(1-pent-4-enylindole-3-carbonyl)amino] butanoate]
[6]
  t1/2: 2.1 min
  CLint: 291 mL/min/kg
[1]
  chromatographic logD: 3.97

## COC(=O)C(NC(=O)c1nn(CCCCCF)c2ccccc12)C(C)(C)C (stereo not drawn) [5F-MDMB-PINACA (2), methyl 2-[1-(5-fluoropentyl)-1H-indazole-3-carboxamido]-3,3-dimethylbutanoate]
[6]
  CLint micr: 271 µL/min/mg
  t1/2: 3.1 min
  CLint: 256.2 mL/min/kg
[7]
  CLH prediction lower than literature prediction without PPB: 4 fold
  EH prediction lower than literature prediction without PPB: 4 fold
[1]
  chromatographic logD: 4.5

## CN1CCCCC1Cn1cc(C(=O)c2cccc3ccccc23)c2ccccc21 (stereo not drawn) [AM1220]
[5]
  CLint: 169 mL/min/kg
  t1/2: 3.7 min

## CCCCCn1cc(C(=O)c2ccc(C)c3ccccc23)c2ccccc21 [JWH-122, (4-methyl-1-naphthyl)-(1-pentylindol-3-yl)methanone]
[5]
  CLint: 1350 mL/min/kg
  t1/2: 0.95 min

## Cc1ccc(C(=O)c2cn(CCCCCBr)c3ccccc23)c2ccccc12 [Br-JWH-122]
[5]
  CLint: 497 mL/min/kg
  t1/2: 2.49 min

## CCCCCn1cc(C(=O)c2ccc(CC)c3ccccc23)c2ccccc21 [JWH-210, 4-ethylnaphthalen-1-yl-(1-pentylindol-3-yl)methanone]
[4]
  log P: 7.5

## COC(=O)[C@@H](NC(=O)c1cn(CC2CCCCC2)c2ccccc12)C(C)C [AMB-CHMICA (9), methyl [1-(cyclohexylmethyl)-1H-indole-3-carbonyl]valinate]
[1]
  chromatographic logD: 4.77

## methyl 2-[1-(5-fluoropentyl)-1H-indazole-3-carboxamido]-3,3-dimethylbutanoate [MDMB-FUBINACA (6)]
[1]; CHI log D, determined for the (S)-enantiomer, n = 1
  Experimental Log D7.4: 4.69
